Data taken from patent EP4624471A1, “PKMYT1 INHIBITOR, PREPARATION METHOD THEREFOR, AND PHARMACEUTICAL COMPOSITION AND USE THEREOF” (Shanghai Qilu Pharmaceutical Research and Development …, priority 2022, dated 2024).
pIC50: −log10 of the molar value.

The compounds below were run against T1, PKMYT1 enzyme (Homo sapiens, UniProt Q99640) (assay: PKMYT1 enzyme inhibition activity, ADP-GLO method). Conditions: PKMYT1 enzyme 10 nM, ATP 5 µM, 37°C 90 minutes; read-out: ADP-GLO IC50.
T1 construct: purchased Thermo Scientific A33387
T1 sequence (Q99640 1-499): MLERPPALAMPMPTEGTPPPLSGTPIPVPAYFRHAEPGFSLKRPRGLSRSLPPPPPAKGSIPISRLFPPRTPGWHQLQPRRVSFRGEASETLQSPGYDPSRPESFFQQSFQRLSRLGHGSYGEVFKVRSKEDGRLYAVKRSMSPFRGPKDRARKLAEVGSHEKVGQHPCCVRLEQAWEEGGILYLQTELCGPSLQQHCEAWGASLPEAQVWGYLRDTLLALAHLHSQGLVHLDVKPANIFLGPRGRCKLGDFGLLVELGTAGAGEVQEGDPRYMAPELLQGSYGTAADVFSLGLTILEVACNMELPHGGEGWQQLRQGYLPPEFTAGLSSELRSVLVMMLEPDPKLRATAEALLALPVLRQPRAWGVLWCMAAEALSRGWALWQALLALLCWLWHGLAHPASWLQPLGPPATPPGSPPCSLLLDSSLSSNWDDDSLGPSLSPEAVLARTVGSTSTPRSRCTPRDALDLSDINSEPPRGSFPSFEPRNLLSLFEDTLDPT
Format: biochemical

Compound | pIC50
Cc1ccc(O)c(C)c1-n1c(N)c(C(N)=O)c2cnc(-c3ccccc3)nc21 [Example 11, 6-Amino-7-(3-hydroxy-2,6-dimethylphenyl)-2-phenyl-7H-pyrrolo[2,3-d]pyrimidine-5-carboxamide] | 7.80
Cc1ccc(O)c(C)c1-n1c(N)c(C(N)=O)c2cnc(C#CC3CC3)nc21 [Example 12, 6-Amino-2-(cyclopropylethynyl)-7-(3-hydroxy-2,6-dimethylphenyl)-7H-pyrrolo[2,3-d]pyrimidine-5-carboxamide] | 8.18
Cc1ccc(O)c(C)c1-n1c(N)c(C(N)=O)c2cnc(N3CCCCC3)nc21 [Example 13, 6-Amino-7-(3-hydroxy-2,6-dimethylphenyl)-2-(piperidin-1-yl)-7H-pyrrolo[2,3-d]pyrimidine-5-carboxamide] | 7.91
Cc1ccc(O)c(C)c1-n1c(N)c(C(N)=O)c2cnc(C#N)nc21 [Example 14, 6-Amino-2-cyano-7-(3-hydroxy-2,6-dimethylphenyl)-7H-pyrrolo[2,3-d]pyrimidine-5-carboxamide] | 7.61
COc1ccc(CNc2ncc3c(C(N)=O)c(N)n(-c4c(C)ccc(O)c4C)c3n2)cc1 [Example 15, 6-Amino-7-(3-hydroxy-2,6-dimethylphenyl)-2-((4-methoxybenzyl)amino)-7H-pyrrolo[2,3-d]pyrimidine-5-carboxamide] | 6.78
Cc1ccc(O)c(C)c1-n1c(N)c(C(N)=O)c2cnc(C3=CCOCC3)nc21 [Example 16, 6-Amino-2-(3,6-dihydro-2H-pyran-4-yl)-7-(3-hydroxy-2,6-dimethylphenyl)-7H-pyrrolo[2,3-d]pyrimidine-5-carboxamide] | 7.93
CCN(CC)c1ncc2c(C(N)=O)c(N)n(-c3c(C)ccc(O)c3C)c2n1 [Example 17, 6-Amino-2-(diethylamino)-7-(3-hydroxy-2,6-dimethylphenyl)-7H-pyrrolo[2,3-d]pyrimidine-5-carboxamide] | 7.15
Cc1ccc(O)c(C)c1-n1c(N)c(C(N)=O)c2cnc(C3CCOCC3)nc21 [Example 18, 6-Amino-7-(3-hydroxy-2,6-dimethylphenyl)-2-(tetrahydro-2H-pyran-4-yl)-7H-pyrrolo[2,3-d]pyrimidine-5-carboxamide] | 7.74
Cc1nc(C)c2c(C(N)=O)c(N)n(-c3c(C)ccc(O)c3C)c2n1 [Example 19, 6-Amino-7-(3-hydroxy-2,6-dimethylphenyl)-2,4-dimethyl-7H-pyrrolo[2,3-d]pyrimidine-5-carboxamide] | 8.35
Cc1cc2c(C(N)=O)c(N)n(-c3c(C)cc(F)c(O)c3C)c2nc1C [Example 23, 2-Amino-1-(4-fluoro-3-hydroxy-2,6-dimethylphenyl)-5,6-dimethyl-1H-pyrrolo[2,3-b]pyridine-3-carboxamide] | 8.07
Cc1ccc(O)c(C)c1-n1c(N)c(C(N)=O)c2cnc(C#CC(C)(C)O)nc21 [Example 26, 6-Amino-7-(3-hydroxy-2,6-dimethylphenyl)-2-(3-hydroxy-3-methylbut-1-yn-1-yl)-7H-pyrrolo[2,3-d]pyrimidine-5-carboxamide] | 7.95
Cc1ccc(O)c(C)c1-n1c(N)c(C(N)=O)c2cnc(C#CC(C)(C)F)nc21 [Example 27] | 8.15
Cc1nc(Cl)c2c(C(N)=O)c(N)n(-c3c(C)ccc(O)c3C)c2n1 [Example 28, 6-Amino-4-chloro-7-(3-hydroxy-2,6-dimethylphenyl)-2-methyl-7H-pyrrolo[2,3-d]pyrimidine-5-carboxamide] | 7.86
Cc1ccc(O)c(C)c1-n1c(N)c(C(N)=O)c2cnc(C)c(F)c21 [Example 29, 2-Amino-7-fluoro-1-(3-hydroxy-2,6-dimethylphenyl)-6-methyl-1H-pyrrolo[3,2-c]nicotinamide] | 7.91
Cc1ccc(O)c(C)c1-n1c(N)c(C(N)=O)c2cnccc21 [Example 30, 2-Amino-1-(3-hydroxy-2,6-dimethylphenyl)-1H-pyrrolo[3,2-c]pyridine-3-carboxamide] | 7.86
Cc1cc2c(cn1)c(C(N)=O)c(N)n2-c1c(C)ccc(O)c1C [Example 31, 2-Amino-1-(3-hydroxy-2,6-dimethylphenyl)-6-methyl-1H-pyrrolo[3,2-c]pyridine-3-carboxamide] | 7.95
CCc1ccc(O)c(CC)c1-n1c(N)c(C(N)=O)c2cnc(C)nc21 [Example 32, 6-Amino-7-(2,6-diethyl-3-hydroxyphenyl)-2-methyl-7H-pyrrolo[2,3-d]pyrimidine-5-carboxamide] | 6.58
Cc1ccc(O)c(C)c1-n1c(N)c(C(N)=O)c2cnc(Nc3ccccc3)nc21 [Example 33, 6-Amino-7-(3-hydroxy-2,6-dimethylphenyl)-2-(phenylamino)-7H-pyrrolo[2,3-d]pyrimidine-5-carboxamide] | 7.95
Cc1cc2c(C(N)=O)c(N)n(-c3c(C)c(O)cc(Cl)c3C)c2nc1C [Example 48, 2-Amino-1-(3-chloro-5-hydroxy-2,6-dimethylphenyl)-5,6-dimethyl-1H-pyrrolo[2,3-b]nicotinamide] | 7.43
Cc1cc2c(C(N)=O)c(N)n(-c3c(C)c(O)c(F)c(F)c3C)c2nc1C [Example 54] | 7.76
Cc1cc(F)c(O)c(C)c1-n1c(N)c(C(N)=O)c2cc(C(F)(F)F)c(C)nc21 [Example 59, 2-Amino-1-(4-fluoro-3-hydroxy-2,6-dimethylphenyl)-6-methyl-5-(trifluoromethyl)-1H-pyrrolo[2,3-b]pyridine-3-carboxamide] | 8.06
CCc1nc(C)nc2c1c(C(N)=O)c(N)n2-c1c(C)c(O)cc(F)c1C [Example 61] | 7.41

The next lines start with the values.

pIC50 | Compound
7.59 | Cc1ccc(O)c(C)c1-n1c(N)c(C(N)=O)c2cnc(N3CCOCC3)nc21 [Example 34, 6-Amino-7-(3-hydroxy-2,6-dimethylphenyl)-2-morpholino-7H-pyrrolo[2,3-d]pyrimidine-5-carboxamide]
7.42 | Cc1ccc(O)c(C)c1-n1c(N)c(C(N)=O)c2cnc(N3CCCC3)nc21 [Example 35, 6-Amino-7-(3-hydroxy-2,6-dimethylphenyl)-2-(pyrrolidin-1-yl)-7H-pyrrolo[2,3-d]pyrimidine-5-carboxamide]
7.76 | Cc1ccc(O)c(C)c1-n1c(N)c(C(N)=O)c2cnc(N(C)C)nc21 [Example 36, 6-Amino-2-(dimethylamino)-7-(3-hydroxy-2,6-dimethylphenyl)-7H-pyrrolo[2,3-d]pyrimidine-5-carboxamide]
8.51 | Cc1ccc(O)c(C)c1-n1c(N)c(C(N)=O)c2cnc(N3CCC(F)(F)CC3)nc21 [Example 37, 6-Amino-2-(4,4-difluoropiperidin-1-yl)-7-(3-hydroxy-2,6-dimethylphenyl)-7H-pyrrolo[2,3-d]pyrimidine-5-carboxamide]
7.63 | Cc1ccc(O)c(C)c1-n1c(N)c(C(N)=O)c2cnc(N)nc21 [Example 40, 2,6-Diamino-7-(3-hydroxy-2,6-dimethylphenyl)-7H-pyrrolo[2,3-d]pyrimidine-5-carboxamide]
7.95 | Cc1ccc(O)c(C)c1-n1c(N)c(C(N)=O)c2cnc(C3CC3)nc21 [Example 41, 6-Amino-2-cyclopropyl-7-(3-hydroxy-2,6-dimethylphenyl)-7H-pyrrolo[2,3-d]pyrimidine-5-carboxamide]
8.18 | CC(C)=Cc1ncc2c(C(N)=O)c(N)n(-c3c(C)ccc(O)c3C)c2n1 [Example 42, 6-Amino-7-(3-hydroxy-2,6-dimethylphenyl)-2-(2-methylprop-1-en-1-yl)-7H-pyrrolo[2,3-d]pyrimidine-5-carboxamide]
7.58 | Cc1cc2c(C(N)=O)c(N)n(-c3c(C)cc(Cl)c(O)c3C)c2nc1C [Example 43, 2-Amino-1-(4-chloro-3-hydroxy-2,6-dimethylphenyl)-5,6-dimethyl-1H-pyrrolo[2,3-b]pyridine-3-carboxamide]
7.93 | Cc1cc2c(C(N)=O)c(N)n(-c3c(C)c(O)c(Cl)c(F)c3C)c2nc1C [Example 44, 2-Amino-1-(4-chloro-3-fluoro-5-hydroxy-2,6-dimethylphenyl)-5,6-dimethyl-1H-pyrrolo[2,3-b]pyridine-3-carboxamide]
7.97 | Cc1ccc(O)c(C)c1-n1c(N)c(C(N)=O)c2cncnc21 [Example 45, 6-Amino-7-(3-hydroxy-2,6-dimethylphenyl)-7H-pyrrolo[2,3-d]pyrimidine-5-carboxamide]
7.36 | COc1ncc2c(C(N)=O)c(N)n(-c3c(C)ccc(O)c3C)c2n1 [Example 46, 6-Amino-7-(3-hydroxy-2,6-dimethylphenyl)-2-methoxy-7H-pyrrolo[2,3-d]pyrimidine-5-carboxamide]
7.89 | C#Cc1ncc2c(C(N)=O)c(N)n(-c3c(C)ccc(O)c3C)c2n1 [Example 47, 6-Amino-2-ethynyl-7-(3-hydroxy-2,6-dimethylphenyl)-7H-pyrrolo[2,3-d]pyrimidine-5-carboxamide]
6.66 | Cc1cc2c(C(N)=O)c(N)n(-c3c(C)cnc(O)c3C)c2nc1C [Example 50, 2-Amino-1-(2-hydroxy-3,5-dimethylpyridin-4-yl)-5,6-dimethyl-1H-pyrrolo[2,3-b]pyridine-3-carboxamide]
6.71 | Cc1cc2c(C(N)=O)c(N)n(-c3c(C)c(C)cc(O)c3C)c2nc1C [Example 53, 2-Amino-1-(3-hydroxy-2,5,6-trimethylphenyl)-5,6-dimethyl-1H-pyrrolo[2,3-b]pyridine-3-carboxamide]
8.52 | Cc1ccc(O)c(C)c1-n1c(N)c(C(N)=O)c2cnc(CC(C)C)nc21 [Example 57, 6-Amino-7-(3-hydroxy-2,6-dimethylphenyl)-2-isobutyl-7H-pyrrolo[2,3-d]pyrimidine-5-carboxamide]
